Source: ChEMBL document CHEMBL2413068, “Solid-phase synthesis of 5'-triphosphate 2'-5'-oligoadenylates analogs with 3'-O-biolabile groups and their evaluation as RNase L activators and antiviral drugs” (Bioorg Med Chem, 2013)
Active and inactive are the calls of the source. The rule behind the calls is not given here.

How the values were obtained:
Vero [1] = test: Cytotoxicity against Respiratory syncytial virus A2 infected african green monkey Vero cells at 33.3 uM by Hucker's crystal violet staining; format: cell-based; conditions: chlorocebus sabaeus
[2] = Selectivity index, ratio of CC50 for human A549 cells to EC50 for Influenza A virus (A/WSN/1933(H1N1)); format: toxicity, cell-based; conditions: read-out: Ratio CC50/EC50
Influenza A virus = test: Antiviral activity against Influenza A virus (A/WSN/1933(H1N1)) infected in human A549 cells assessed as reduction of viral RNA level my measuring luminescence after 72 hrs by RT-PCR analysis; format: functional, organism-based; conditions: A549, 72 h
[3] = target: T1, 2-5A-dependent ribonuclease (Homo sapiens, UniProt Q05823); test: Activation of human recombinant RNase L endonuclease activity using 6-FAM-UUAUCAAAUUCUUAUUUGCCCCAUUUUUUUGGUUUA-BHQ-1 as substrate assessed as substrate cleavage measured for 50 mins by FRET assay
T1 sequence (Q05823 whole entry): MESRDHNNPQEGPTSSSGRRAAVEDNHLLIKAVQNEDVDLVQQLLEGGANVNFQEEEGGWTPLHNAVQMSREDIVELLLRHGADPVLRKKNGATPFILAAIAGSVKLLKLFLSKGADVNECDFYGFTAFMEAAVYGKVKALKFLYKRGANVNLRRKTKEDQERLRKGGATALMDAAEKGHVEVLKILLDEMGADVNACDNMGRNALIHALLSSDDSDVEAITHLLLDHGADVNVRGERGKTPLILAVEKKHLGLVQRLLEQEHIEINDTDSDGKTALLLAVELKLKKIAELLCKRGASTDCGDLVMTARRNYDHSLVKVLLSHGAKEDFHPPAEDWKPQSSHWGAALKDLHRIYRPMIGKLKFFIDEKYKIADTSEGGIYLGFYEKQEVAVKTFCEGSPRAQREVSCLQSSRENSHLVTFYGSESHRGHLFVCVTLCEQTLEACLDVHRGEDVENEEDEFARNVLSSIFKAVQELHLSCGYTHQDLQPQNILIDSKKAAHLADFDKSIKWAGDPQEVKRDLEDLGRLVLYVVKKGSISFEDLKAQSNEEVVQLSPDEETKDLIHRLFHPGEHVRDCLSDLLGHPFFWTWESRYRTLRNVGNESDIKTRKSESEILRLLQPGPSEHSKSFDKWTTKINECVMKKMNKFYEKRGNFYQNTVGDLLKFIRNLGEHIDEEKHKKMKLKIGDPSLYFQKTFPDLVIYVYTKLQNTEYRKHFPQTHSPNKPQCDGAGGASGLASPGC

[4] = Cytotoxicity against human A549 cells after 72 hrs by Cell Titer-Glo assay; format: cell-based
[5] = tested on: Respiratory syncytial virus; test: Antiviral activity against Respiratory syncytial virus A2 infected in african green monkey Vero cells assessed as reduction of virus-induced cytopathic effect at >= 15 nM pretreated 2 hrs before viral infection measured daily using hucker's crystal violet staining; format: functional, organism-based
Vero [6] = test: Cytotoxicity against african green monkey Vero cells assessed as cell viability up to 100 uM by Hucker's crystal violet staining; format: cell-based; conditions: chlorocebus sabaeus

Compound	Activity (Vero [1])	selectivity ratio [2]	EC50 (Influenza A virus)	EC50 [3]	CC50 at 72 h [4]	Activity [5]	Activity (Vero [6])
CC(C)(C)C(=O)OCO[C@H]1[C@@H](O)[C@H](n2cnc3ncnc(N)c32)O[C@@H]1COP(=O)(O)O[C@@H]1[C@H](OCOC(=O)C(C)(C)C)[C@@H](COP(=O)(O)O[C@@H]2[C@H](OCOC(=O)C(C)(C)C)[C@@H](COP(=O)(O)OP(=O)(O)OP(=O)(O)O)O[C@H]2n2cnc3ncnc(N)c32)O[C@H]1n1cnc2ncnc(N)c21	Toxic	3	14600 nM	19.1 nM	47000 nM	Active	Non-toxic
Nc1ncnc2ncn([C@@H]3O[C@H](COP(=O)(O)O[C@@H]4[C@H](O)[C@@H](COP(=O)(O)O[C@@H]5[C@H](O)[C@@H](COP(=O)(O)O[C@@H]6[C@H](O)[C@@H](COP(=O)(O)OP(=O)(O)OP(=O)(O)O)O[C@H]6n6cnc7ncnc(N)c76)O[C@H]5n5cnc6ncnc(N)c65)O[C@H]4n4cnc5ncnc(N)c54)[C@@H](O)[C@H]3O)c12				6.1 nM			
CC(C)(C)C(=O)OCO[C@H]1[C@@H](O)[C@H](n2cnc3ncnc(N)c32)O[C@@H]1COP(=O)(O)O[C@@H]1[C@H](OCOC(=O)C(C)(C)C)[C@@H](COP(=O)(O)O[C@@H]2[C@H](OCOC(=O)C(C)(C)C)[C@@H](COP(=O)(O)O[C@@H]3[C@H](OCOC(=O)C(C)(C)C)[C@@H](COP(=O)(O)OP(=O)(O)OP(=O)(O)O)O[C@H]3n3cnc4ncnc(N)c43)O[C@H]2n2cnc3ncnc(N)c32)O[C@H]1n1cnc2ncnc(N)c21				241 nM			
